Measured values taken from PubChem BioAssay AID330 (DTP/NCI, 2004).
Where “and” joins values, the source holds several entries; their conditions need not be identical. Equal values may be shown once. Toxic doses and inconclusive results are not listed. How the source made its calls: active means survival T/C of 150% or more; inactive means T/C below 125% in these data.

Test system: P388 leukemia ip, CD2F1 mice, survival T/C
Assay: NCI In Vivo Anticancer Drug Screen. Data for tumor model P388 Leukemia (intraperitoneal) in CD2F1 (CDF1) mice
Conditions: endpoint: median survival time, higher = longer survival
Outline: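 Mice carrying the transplanted tumor received test compound or vehicle. Survival was recorded in each group, and the value is the treated-group measurement divided by that of the vehicle-treated control group.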

[1] = dose: 200.0 mg/kg/injection, schedule: Q01DX009 (ip), vehicle: Klucel (hydroxypropylcellulose) (HPC)
[2] = dose: 50.0 mg/kg/injection, schedule: Q01DX005 (ip), vehicle: Klucel (hydroxypropylcellulose) (HPC)
[3] = dose: 100.0 mg/kg/injection, schedule: Q01DX005 (ip), vehicle: Klucel (hydroxypropylcellulose) (HPC)
[4] = dose: 200.0 mg/kg/injection, schedule: Q01DX005 (ip), vehicle: Klucel (hydroxypropylcellulose) (HPC)
[5] = dose: 50.0 mg/kg/injection, schedule: Q01DX009 (ip), vehicle: Klucel (hydroxypropylcellulose) (HPC)
[6] = dose: 50.0 mg/kg/injection, schedule: Q01DX005 (ip), vehicle: saline with Tween-80
[7] = dose: 100.0 mg/kg/injection, schedule: Q01DX005 (ip), vehicle: saline with Tween-80
[8] = dose: 200.0 mg/kg/injection, schedule: Q01DX005 (ip), vehicle: saline with Tween-80
[9] = dose: 25.0 mg/kg/injection, schedule: Q01DX005 (ip), vehicle: saline with Tween-80

Measured: T/C

CC(C)=CCc1c(-c2ccc(O)cc2O)oc2c([C@H]3C=C(C)CC(c4ccc(O)cc4O)[C@@H]3C(=O)c3ccc(O)cc3O)c(O)cc(O)c2c1=O (some centres undefined)
inactive: dose: 8.75 mg/kg/injection, schedule: Q01DX005 (ip), vehicle: Klucel (hydroxypropylcellulose) (HPC) 99 % of control | dose: 17.5 mg/kg/injection, schedule: Q01DX005 (ip), vehicle: Klucel (hydroxypropylcellulose) (HPC) 98 % of control | dose: 35.0 mg/kg/injection, schedule: Q01DX005 (ip), vehicle: Klucel (hydroxypropylcellulose) (HPC) 92 % of control | dose: 70.0 mg/kg/injection, schedule: Q01DX005 (ip), vehicle: Klucel (hydroxypropylcellulose) (HPC) 92 % of control | dose: 140.0 mg/kg/injection, schedule: Q01DX005 (ip), vehicle: Klucel (hydroxypropylcellulose) (HPC) 108 % of control

O=c1[nH]c(=O)c2nc(-c3cccc([N+](=O)[O-])c3)cnc2[nH]1
inactive: dose: 100.0 mg/kg/injection, schedule: Q04DX002 (ip), vehicle: saline 101 % of control | dose: 200.0 mg/kg/injection, schedule: Q04DX002 (ip), vehicle: saline 113 % of control | dose: 400.0 mg/kg/injection, schedule: Q04DX002 (ip), vehicle: saline 106 % of control

C=CCC1=CC2(OC)C(=O)C(OC)(OC)C1C1C(OC)(OC)C(=O)C(OC)=CC12CC=C (centres undefined)
inactive: dose: 18.75 mg/kg/injection, schedule: Q01DX009 (ip), vehicle: Klucel (hydroxypropylcellulose) (HPC) 114 % of control and 93 % of control | dose: 37.5 mg/kg/injection, schedule: Q01DX009 (ip), vehicle: Klucel (hydroxypropylcellulose) (HPC) 99 % of control | dose: 75.0 mg/kg/injection, schedule: Q01DX009 (ip), vehicle: Klucel (hydroxypropylcellulose) (HPC) 102 % of control and 112 % of control | dose: 150.0 mg/kg/injection, schedule: Q01DX009 (ip), vehicle: Klucel (hydroxypropylcellulose) (HPC) 94 % of control | [1] 94 % of control

O=P(c1ccccc1)(c1ccccc1)c1ccccc1OCCCO
inactive: [2] 99 % of control | [3] 100 % of control | [4] 97 % of control

Cc1cc(C)c(N)c(Br)c1
inactive: dose: 6.25 mg/kg/injection, schedule: Q01DX009 (ip), vehicle: saline with Tween-80 118 % of control | dose: 12.5 mg/kg/injection, schedule: Q01DX009 (ip), vehicle: saline with Tween-80 113 % of control | dose: 12.5 mg/kg/injection, schedule: Q04DX003 (ip), vehicle: saline with Tween-80 100 % of control | dose: 25.0 mg/kg/injection, schedule: Q01DX009 (ip), vehicle: saline with Tween-80 100 % of control | dose: 25.0 mg/kg/injection, schedule: Q04DX003 (ip), vehicle: other 120 % of control | dose: 25.0 mg/kg/injection, schedule: Q04DX003 (ip), vehicle: saline with Tween-80 100 % of control | dose: 50.0 mg/kg/injection, schedule: Q04DX003 (ip), vehicle: other 120 % of control | dose: 50.0 mg/kg/injection, schedule: Q04DX003 (ip), vehicle: saline with Tween-80 95 % of control

O=S(=O)(Cl)CCCCS(=O)(=O)Cl
inactive: dose: 12.5 mg/kg/injection, schedule: Q01DX009 (ip), vehicle: Klucel (hydroxypropylcellulose) (HPC) 103 % of control | dose: 25.0 mg/kg/injection, schedule: Q01DX009 (ip), vehicle: Klucel (hydroxypropylcellulose) (HPC) 91 % of control | [5] 99 % of control and 101 % of control

Nc1ncc(S(=O)(=O)c2ccc([N+](=O)[O-])cc2)c(N)n1
inactive: dose: 75.0 mg/kg/injection, schedule: Q01DX009 (ip), vehicle: suspension in saline 96 % of control | dose: 150.0 mg/kg/injection, schedule: Q01DX009 (ip), vehicle: suspension in saline 98 % of control | dose: 300.0 mg/kg/injection, schedule: Q01DX009 (ip), vehicle: suspension in saline 92 % of control

O=C(N/N=C/c1ccc(O)c(O)c1)c1ccccc1
inactive: [6] 109 % of control | [7] 118 % of control | [8] 119 % of control

CCSc1n[nH]c(C2CCC(=O)N2Cc2ccccc2)n1 (centres undefined)
inactive: [6] 103 % of control | [7] 104 % of control | [8] 102 % of control

O=C1CCC(=O)N1SCc1cccc2ccccc12
inactive: [5] 115 % of control | dose: 100.0 mg/kg/injection, schedule: Q01DX009 (ip), vehicle: Klucel (hydroxypropylcellulose) (HPC) 93 % of control | [1] 102 % of control

CCCC(=O)C1C(c2ccccc2)CC(=O)C(CC)C1c1ccccc1 (centres undefined)
inactive: dose: 12.5 mg/kg/injection, schedule: Q01DX005 (ip), vehicle: saline with Tween-80 90 % of control | [9] 95 % of control | [6] 88 % of control and 90 % of control | [8] 88 % of control

CCOC(=O)C1=C(C)NC(=O)NC1c1cccc(OC)c1O (centres undefined)
inactive: [2] 94 % of control | [3] 91 % of control | [4] 97 % of control

CC1=CC23C(=O)[C@@H](C=C(COC(=O)c4ccccc4)[C@@H](O)[C@]2(O)[C@H]1OC(=O)c1ccccc1)[C@H]1[C@@H](C[C@H]3C)C1(C)C
inactive: dose: 12.5 micrograms/kg/injection, schedule: Q01DX009 (ip), vehicle: saline with Tween-80 113 % of control | dose: 25.0 micrograms/kg/injection, schedule: Q01DX009 (ip), vehicle: saline with Tween-80 102 % of control | dose: 50.0 micrograms/kg/injection, schedule: Q01DX009 (ip), vehicle: saline with Tween-80 106 % of control | dose: 100.0 micrograms/kg/injection, schedule: Q01DX009 (ip), vehicle: saline with Tween-80 119 % of control | dose: 200.0 micrograms/kg/injection, schedule: Q01DX009 (ip), vehicle: saline with Tween-80 113 % of control | dose: 281.0 micrograms/kg/injection, schedule: Q01DX009 (ip), vehicle: saline + alcohol 108 % of control | dose: 468.0 micrograms/kg/injection, schedule: Q01DX009 (ip), vehicle: saline + alcohol 89 % of control | dose: 780.0 micrograms/kg/injection, schedule: Q01DX009 (ip), vehicle: saline + alcohol 89 % of control

O=c1nc2sccn2c2ncccc12
inactive: dose: 3.75 mg/kg/injection, schedule: Q01DX005 (ip), vehicle: saline with Tween-80 96 % of control | dose: 7.5 mg/kg/injection, schedule: Q01DX005 (ip), vehicle: saline with Tween-80 94 % of control | dose: 15.0 mg/kg/injection, schedule: Q01DX005 (ip), vehicle: saline with Tween-80 88 % of control

COc1ccc(/C=C/Cc2cc3c(cc2OC)OCO3)cc1
inactive: dose: 60.0 mg/kg/injection, schedule: Q01DX005 (ip), vehicle: saline with Tween-80 104 % of control | dose: 120.0 mg/kg/injection, schedule: Q01DX005 (ip), vehicle: saline with Tween-80 93 % of control | dose: 240.0 mg/kg/injection, schedule: Q01DX005 (ip), vehicle: saline with Tween-80 90 % of control

CC(C)Cc1nccs1.CC(C)Cc1nccs1.CC(C)Cc1nccs1.CC(C)Cc1nccs1.[Cl][Rh][Cl]
inactive: dose: 25.0 mg/kg/injection, schedule: Q01DX001 (ip), vehicle: Klucel (hydroxypropylcellulose) (HPC) 108 % of control | dose: 50.0 mg/kg/injection, schedule: Q01DX001 (ip), vehicle: Klucel (hydroxypropylcellulose) (HPC) 100 % of control | dose: 100.0 mg/kg/injection, schedule: Q01DX001 (ip), vehicle: Klucel (hydroxypropylcellulose) (HPC) 112 % of control

C=C1C(=O)OC2C/C(C)=C/CC/C(C)=C/CCC3(C)OC3CC12 (centres undefined)
inactive: dose: 4.0 mg/kg/injection, schedule: Q01DX009 (ip), vehicle: Klucel (hydroxypropylcellulose) (HPC) 104 % of control | dose: 8.0 mg/kg/injection, schedule: Q01DX009 (ip), vehicle: Klucel (hydroxypropylcellulose) (HPC) 104 % of control | dose: 16.0 mg/kg/injection, schedule: Q01DX009 (ip), vehicle: Klucel (hydroxypropylcellulose) (HPC) 108 % of control | dose: 32.0 mg/kg/injection, schedule: Q01DX009 (ip), vehicle: Klucel (hydroxypropylcellulose) (HPC) 105 % of control

C=CCN1CCCC1=O
inactive: dose: 100.0 mg/kg/injection, schedule: Q04DX003 (ip), vehicle: saline 100 % of control | dose: 200.0 mg/kg/injection, schedule: Q04DX003 (ip), vehicle: saline 100 % of control | dose: 400.0 mg/kg/injection, schedule: Q04DX003 (ip), vehicle: saline 95 % of control

CC(=O)O[C@H]1CC[C@]2(C)C34OC3C[C@]3(C)[C@@H](C(C)=O)CC[C@H]3[C@]43C=C[C@@]2(C1)C1C(=O)OC(=O)C13 (some centres undefined)
inactive: [2] 112 % of control | [3] 106 % of control

NC(=O)c1nc2c(Nc3cccc(Cl)c3)nc(N)nc2nc1N
inactive: dose: 100.0 mg/kg/injection, schedule: Q01DX001 (ip), vehicle: saline 100 % of control | dose: 200.0 mg/kg/injection, schedule: Q01DX001 (ip), vehicle: saline 104 % of control | dose: 400.0 mg/kg/injection, schedule: Q01DX001 (ip), vehicle: saline 104 % of control

CC(C)N(c1nccc(F)n1)C(C)C
inactive: [9] 103 % of control | [6] 101 % of control | [7] 103 % of control | [8] 104 % of control
